ChEMBL document CHEMBL5291721, “A preclinical secondary pharmacology resource illuminates target-adverse drug reaction associations of marketed drugs” (Nat Commun, 2023)

Legend:
D(3) dopamine receptor = D(3) dopamine receptor (Homo sapiens, UniProt P35462)
[1] = molecular target: 5-hydroxytryptamine receptor 2B (Homo sapiens, UniProt P41595); format: functional, cell-based
[2] = molecular target: cGMP-inhibited 3',5'-cyclic phosphodiesterase 3A (Homo sapiens, UniProt Q14432); format: functional
[3] = molecular target: Sodium-dependent dopamine transporter (Homo sapiens, UniProt Q01959)
[4] = molecular target: Sodium-dependent serotonin transporter (Homo sapiens, UniProt P31645)
[5] = molecular target: Beta-2 adrenergic receptor (Homo sapiens, UniProt P07550)
[6] = molecular target: T1, Muscarinic acetylcholine receptor M2 (Homo sapiens, UniProt P08172); format: functional, cell-based
T1 sequence (P08172 whole entry): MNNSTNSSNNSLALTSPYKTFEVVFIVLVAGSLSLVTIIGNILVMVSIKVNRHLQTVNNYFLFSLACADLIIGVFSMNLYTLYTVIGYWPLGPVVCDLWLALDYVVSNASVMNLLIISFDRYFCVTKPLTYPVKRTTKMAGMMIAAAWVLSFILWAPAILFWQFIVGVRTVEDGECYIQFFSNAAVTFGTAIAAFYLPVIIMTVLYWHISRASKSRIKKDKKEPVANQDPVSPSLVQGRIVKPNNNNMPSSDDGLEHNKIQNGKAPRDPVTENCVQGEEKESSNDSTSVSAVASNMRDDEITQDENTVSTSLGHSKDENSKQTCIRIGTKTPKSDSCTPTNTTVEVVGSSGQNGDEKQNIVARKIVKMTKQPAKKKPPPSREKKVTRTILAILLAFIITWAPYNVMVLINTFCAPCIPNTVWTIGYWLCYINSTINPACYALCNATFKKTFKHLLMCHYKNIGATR

Cannabinoid receptor 1 = Cannabinoid receptor 1 (Homo sapiens, UniProt P21554); format: functional, cell-based
[7] = molecular target: T2, Neuropeptide Y receptor type 1 (Homo sapiens, UniProt P25929)
T2 sequence (P25929 whole entry): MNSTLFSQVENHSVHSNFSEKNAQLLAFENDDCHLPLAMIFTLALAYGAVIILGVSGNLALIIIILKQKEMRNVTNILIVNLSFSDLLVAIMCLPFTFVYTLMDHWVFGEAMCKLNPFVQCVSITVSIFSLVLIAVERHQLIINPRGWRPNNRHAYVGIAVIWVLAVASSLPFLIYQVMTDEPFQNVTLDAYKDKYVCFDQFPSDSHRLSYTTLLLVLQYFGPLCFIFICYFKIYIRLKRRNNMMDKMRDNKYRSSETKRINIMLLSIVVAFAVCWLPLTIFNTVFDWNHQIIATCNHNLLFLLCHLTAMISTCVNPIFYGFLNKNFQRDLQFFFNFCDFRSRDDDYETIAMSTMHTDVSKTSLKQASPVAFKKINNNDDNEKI

[8] = molecular target: Kappa-type opioid receptor (Homo sapiens, UniProt P41145)
Mu-type opioid receptor = Mu-type opioid receptor (Homo sapiens, UniProt P35372)
[9] = molecular target: T3, Muscarinic acetylcholine receptor M1 (Homo sapiens, UniProt P11229); format: functional
T3 sequence (P11229 whole entry): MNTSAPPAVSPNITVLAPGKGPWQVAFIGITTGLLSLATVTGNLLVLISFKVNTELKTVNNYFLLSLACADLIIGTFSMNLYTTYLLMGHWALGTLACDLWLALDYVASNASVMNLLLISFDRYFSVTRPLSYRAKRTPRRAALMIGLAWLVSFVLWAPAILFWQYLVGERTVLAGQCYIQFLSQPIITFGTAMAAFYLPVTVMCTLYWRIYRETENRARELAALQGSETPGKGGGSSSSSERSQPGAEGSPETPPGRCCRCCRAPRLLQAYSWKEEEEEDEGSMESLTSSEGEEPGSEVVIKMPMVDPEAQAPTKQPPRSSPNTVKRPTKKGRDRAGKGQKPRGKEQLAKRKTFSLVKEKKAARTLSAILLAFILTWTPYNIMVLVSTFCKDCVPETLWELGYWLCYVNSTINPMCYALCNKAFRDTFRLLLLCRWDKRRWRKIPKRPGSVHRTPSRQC
Note: assay procedure not described here.

Chain of Sodium-dependent serotonin transporter (P31645 whole entry): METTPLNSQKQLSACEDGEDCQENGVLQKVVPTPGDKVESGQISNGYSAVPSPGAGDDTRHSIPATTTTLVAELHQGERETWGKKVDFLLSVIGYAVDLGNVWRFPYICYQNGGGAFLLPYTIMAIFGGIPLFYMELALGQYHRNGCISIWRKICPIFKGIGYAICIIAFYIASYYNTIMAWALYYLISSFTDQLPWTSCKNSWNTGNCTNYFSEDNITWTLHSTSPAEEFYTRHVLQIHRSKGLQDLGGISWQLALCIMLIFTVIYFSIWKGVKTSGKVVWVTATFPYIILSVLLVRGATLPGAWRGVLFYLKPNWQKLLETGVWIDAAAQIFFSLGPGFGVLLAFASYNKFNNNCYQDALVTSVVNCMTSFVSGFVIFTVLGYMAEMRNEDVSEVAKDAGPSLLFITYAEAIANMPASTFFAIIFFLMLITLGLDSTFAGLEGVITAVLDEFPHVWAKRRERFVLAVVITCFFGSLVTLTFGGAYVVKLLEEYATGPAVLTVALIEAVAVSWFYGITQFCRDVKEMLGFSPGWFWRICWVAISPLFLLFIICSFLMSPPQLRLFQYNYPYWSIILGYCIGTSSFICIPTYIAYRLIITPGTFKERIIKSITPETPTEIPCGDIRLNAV
Chain of Mu-type opioid receptor (P35372 whole entry): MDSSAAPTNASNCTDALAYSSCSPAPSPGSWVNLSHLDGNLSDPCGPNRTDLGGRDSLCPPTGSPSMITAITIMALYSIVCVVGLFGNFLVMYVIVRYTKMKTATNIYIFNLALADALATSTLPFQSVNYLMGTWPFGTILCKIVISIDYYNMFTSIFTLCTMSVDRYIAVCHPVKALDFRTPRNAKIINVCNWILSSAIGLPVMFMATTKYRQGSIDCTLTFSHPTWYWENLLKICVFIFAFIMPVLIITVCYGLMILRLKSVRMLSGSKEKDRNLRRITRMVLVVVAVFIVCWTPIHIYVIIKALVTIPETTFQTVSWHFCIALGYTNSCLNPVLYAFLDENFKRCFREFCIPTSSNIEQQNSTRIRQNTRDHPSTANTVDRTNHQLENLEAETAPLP
Chain of cGMP-inhibited 3',5'-cyclic phosphodiesterase 3A (Q14432 whole entry): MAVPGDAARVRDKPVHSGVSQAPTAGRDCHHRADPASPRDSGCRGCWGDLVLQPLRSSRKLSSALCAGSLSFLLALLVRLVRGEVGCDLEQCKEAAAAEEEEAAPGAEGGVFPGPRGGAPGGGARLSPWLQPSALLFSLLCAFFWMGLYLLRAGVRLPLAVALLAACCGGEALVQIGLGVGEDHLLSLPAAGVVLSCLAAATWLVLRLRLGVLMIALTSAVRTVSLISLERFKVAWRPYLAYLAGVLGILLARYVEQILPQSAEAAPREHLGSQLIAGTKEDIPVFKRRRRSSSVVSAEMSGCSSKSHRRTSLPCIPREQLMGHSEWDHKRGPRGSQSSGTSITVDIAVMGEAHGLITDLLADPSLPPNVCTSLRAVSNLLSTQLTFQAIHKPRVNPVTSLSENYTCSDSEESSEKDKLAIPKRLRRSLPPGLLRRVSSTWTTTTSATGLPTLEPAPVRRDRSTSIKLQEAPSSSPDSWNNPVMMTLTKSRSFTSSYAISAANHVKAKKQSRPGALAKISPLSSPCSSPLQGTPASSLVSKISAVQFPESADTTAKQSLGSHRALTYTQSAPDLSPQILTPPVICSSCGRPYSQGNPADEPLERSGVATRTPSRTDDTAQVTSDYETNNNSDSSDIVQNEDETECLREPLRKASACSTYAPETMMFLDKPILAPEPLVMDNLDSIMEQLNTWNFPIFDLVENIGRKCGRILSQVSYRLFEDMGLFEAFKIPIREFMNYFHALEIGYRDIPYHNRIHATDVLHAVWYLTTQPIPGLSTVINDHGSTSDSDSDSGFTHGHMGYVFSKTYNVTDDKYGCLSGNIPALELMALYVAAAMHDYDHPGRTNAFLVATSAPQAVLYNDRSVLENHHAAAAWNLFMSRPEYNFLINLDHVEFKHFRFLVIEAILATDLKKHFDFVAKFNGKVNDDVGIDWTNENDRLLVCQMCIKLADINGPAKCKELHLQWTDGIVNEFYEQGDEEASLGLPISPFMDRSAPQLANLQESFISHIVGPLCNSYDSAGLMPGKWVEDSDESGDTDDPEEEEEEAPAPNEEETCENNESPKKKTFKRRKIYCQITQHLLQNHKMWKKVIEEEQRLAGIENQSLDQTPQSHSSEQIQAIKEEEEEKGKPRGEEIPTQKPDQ
Chain of Sodium-dependent dopamine transporter (Q01959 whole entry): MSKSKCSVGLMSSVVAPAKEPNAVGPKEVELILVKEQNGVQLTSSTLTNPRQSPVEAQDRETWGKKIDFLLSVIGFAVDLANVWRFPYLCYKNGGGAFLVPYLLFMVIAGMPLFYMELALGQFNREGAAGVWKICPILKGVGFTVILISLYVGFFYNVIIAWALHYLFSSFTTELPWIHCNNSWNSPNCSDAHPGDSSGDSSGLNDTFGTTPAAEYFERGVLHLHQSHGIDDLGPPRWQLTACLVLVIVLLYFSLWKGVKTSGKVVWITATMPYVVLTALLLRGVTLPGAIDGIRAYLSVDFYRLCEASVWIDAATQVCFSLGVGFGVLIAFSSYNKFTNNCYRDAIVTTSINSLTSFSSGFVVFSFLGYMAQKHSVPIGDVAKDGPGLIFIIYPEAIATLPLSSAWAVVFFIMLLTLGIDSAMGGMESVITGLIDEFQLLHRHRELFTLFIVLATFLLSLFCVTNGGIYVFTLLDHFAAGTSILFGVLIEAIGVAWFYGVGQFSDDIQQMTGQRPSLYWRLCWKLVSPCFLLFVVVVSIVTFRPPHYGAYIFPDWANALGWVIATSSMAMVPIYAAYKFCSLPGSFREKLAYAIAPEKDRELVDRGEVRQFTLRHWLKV
Chain of D(3) dopamine receptor (P35462 whole entry): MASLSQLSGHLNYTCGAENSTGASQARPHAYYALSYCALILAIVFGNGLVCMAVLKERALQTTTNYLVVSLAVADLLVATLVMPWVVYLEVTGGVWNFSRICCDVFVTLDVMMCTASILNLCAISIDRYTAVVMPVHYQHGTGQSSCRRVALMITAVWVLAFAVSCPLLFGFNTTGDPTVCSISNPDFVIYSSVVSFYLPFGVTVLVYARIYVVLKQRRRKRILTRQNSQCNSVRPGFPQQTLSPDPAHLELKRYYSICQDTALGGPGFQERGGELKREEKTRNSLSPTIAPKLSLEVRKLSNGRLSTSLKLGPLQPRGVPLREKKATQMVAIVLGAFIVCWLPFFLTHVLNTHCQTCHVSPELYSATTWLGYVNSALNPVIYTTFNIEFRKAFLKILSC
Chain of Kappa-type opioid receptor (P41145 whole entry): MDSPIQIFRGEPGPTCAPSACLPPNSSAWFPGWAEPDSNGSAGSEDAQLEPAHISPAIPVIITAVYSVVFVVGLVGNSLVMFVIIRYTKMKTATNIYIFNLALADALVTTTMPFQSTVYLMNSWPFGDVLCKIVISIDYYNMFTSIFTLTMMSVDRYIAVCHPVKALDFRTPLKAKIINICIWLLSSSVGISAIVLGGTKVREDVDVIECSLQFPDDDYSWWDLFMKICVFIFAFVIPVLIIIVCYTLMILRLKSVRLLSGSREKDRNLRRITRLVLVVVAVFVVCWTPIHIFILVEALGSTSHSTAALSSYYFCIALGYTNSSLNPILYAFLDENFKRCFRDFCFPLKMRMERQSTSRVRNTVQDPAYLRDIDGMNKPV
Chain of 5-hydroxytryptamine receptor 2B (P41595 whole entry): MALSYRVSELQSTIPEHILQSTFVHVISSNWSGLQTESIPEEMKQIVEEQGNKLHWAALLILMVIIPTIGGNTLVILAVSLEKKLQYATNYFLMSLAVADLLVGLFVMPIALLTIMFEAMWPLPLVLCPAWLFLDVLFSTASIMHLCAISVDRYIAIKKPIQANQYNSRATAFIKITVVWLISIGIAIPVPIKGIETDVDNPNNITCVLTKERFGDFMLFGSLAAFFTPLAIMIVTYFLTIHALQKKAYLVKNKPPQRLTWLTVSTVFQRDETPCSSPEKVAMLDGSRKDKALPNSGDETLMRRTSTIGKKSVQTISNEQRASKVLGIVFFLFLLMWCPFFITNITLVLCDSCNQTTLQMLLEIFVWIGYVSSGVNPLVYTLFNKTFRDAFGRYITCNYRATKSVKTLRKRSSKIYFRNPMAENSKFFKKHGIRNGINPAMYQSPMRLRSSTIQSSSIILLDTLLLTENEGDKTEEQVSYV
Chain of Beta-2 adrenergic receptor (P07550 whole entry): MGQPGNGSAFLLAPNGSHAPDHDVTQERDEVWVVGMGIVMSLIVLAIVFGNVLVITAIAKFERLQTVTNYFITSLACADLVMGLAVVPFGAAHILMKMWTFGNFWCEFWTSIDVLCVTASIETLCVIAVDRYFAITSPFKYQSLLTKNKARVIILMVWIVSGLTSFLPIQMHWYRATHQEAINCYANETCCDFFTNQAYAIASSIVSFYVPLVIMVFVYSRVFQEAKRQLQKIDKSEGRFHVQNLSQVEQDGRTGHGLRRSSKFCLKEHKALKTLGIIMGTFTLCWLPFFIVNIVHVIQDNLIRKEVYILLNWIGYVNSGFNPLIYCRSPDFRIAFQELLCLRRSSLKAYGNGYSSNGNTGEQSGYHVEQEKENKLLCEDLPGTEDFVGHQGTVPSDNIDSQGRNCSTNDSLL
Chain of Cannabinoid receptor 1 (P21554 whole entry): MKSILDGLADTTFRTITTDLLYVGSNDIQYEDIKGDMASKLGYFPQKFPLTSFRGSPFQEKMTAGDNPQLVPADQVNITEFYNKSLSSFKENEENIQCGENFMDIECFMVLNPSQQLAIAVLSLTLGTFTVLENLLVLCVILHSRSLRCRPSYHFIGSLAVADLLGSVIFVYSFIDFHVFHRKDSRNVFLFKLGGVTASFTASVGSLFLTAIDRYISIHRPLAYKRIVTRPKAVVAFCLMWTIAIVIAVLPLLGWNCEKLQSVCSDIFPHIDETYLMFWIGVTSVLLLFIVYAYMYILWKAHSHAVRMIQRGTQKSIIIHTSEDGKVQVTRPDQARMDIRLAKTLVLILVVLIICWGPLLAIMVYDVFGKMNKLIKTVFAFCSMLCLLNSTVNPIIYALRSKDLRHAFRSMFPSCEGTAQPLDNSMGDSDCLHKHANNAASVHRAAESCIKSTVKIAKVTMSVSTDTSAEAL

SMILES	AC50 (D(3) dopamine receptor) [µM]	AC50 [1] [µM]	AC50 [2] [µM]	AC50 [3] [µM]	AC50 [4] [µM]	AC50 [5] [µM]	AC50 [6] [µM]	AC50 (Cannabinoid receptor 1) [µM]	AC50 [7] [µM]	AC50 [8] [µM]	AC50 (Mu-type opioid receptor) [µM]	AC50 [9] [µM]
OC[C@H]1NC[C@H](O)[C@@H](O)[C@H]1O	> 30	> 30	> 30	> 30	> 30							
O=C(O)[C@@H](S)[C@@H](S)C(=O)O	> 30	> 30	> 30	> 30	> 30							
CCOC(=O)[C@H](CCc1ccccc1)N[C@@H](C)C(=O)N1Cc2ccccc2C[C@H]1C(=O)O	> 30	> 30	> 30	> 30		> 10	> 10	> 30	> 30	> 10	> 10	
C=CC1=C(C(=O)O)N2C(=O)[C@@H](NC(=O)/C(=N\O)c3csc(N)n3)[C@H]2SC1						> 30	> 10	> 30	> 30	> 10	> 30	> 10
CC#CC(=O)N1CCC[C@H]1c1nc(-c2ccc(C(=O)Nc3ccccn3)cc2)c2c(N)nccn12 [ACALABRUTINIB]	> 30	> 30	> 30	> 30	> 30							
O=C(O)COC(=O)Cc1ccccc1Nc1c(Cl)cccc1Cl [ACECLOFENAC]						> 10	> 10	> 30	> 30	> 10	> 30	
C=CCOc1ccc(CC(=O)O)cc1Cl [ALCLOFENAC]		> 30	> 30	> 30	> 30							
CC[N+](CC)(CCNC(=O)C(=O)NCC[N+](CC)(CC)Cc1ccccc1Cl)Cc1ccccc1Cl [AMBENONIUM]							> 30	> 30	> 30	0.7		1.6
NCCCNCCSP(=O)(O)O [AMIFOSTINE]						> 30	> 30	> 30	> 30	> 30		
NCCCCCC(=O)O [AMINOCAPROIC ACID]						> 10	> 10		> 10	> 10	> 30	
CN(C)CCC=C1c2ccccc2CCc2ccccc21 [AMITRIPTYLINE]	0.147		> 30	7.42		21.1		> 30	> 30		> 30	
CC(=O)Oc1ccccc1C(=O)O [ASPIRIN]	> 30	> 30	> 30	> 30		> 10	> 30	> 30	> 30	> 10	> 30	
CC(C)NCC(O)COc1ccc(CC(N)=O)cc1 (stereo not given) [ATENOLOL]									> 30	> 30		
CC(C)C[C@H](NC(=O)[C@H](Cc1ccccc1)NC(=O)c1cnccn1)B(O)O [BORTEZOMIB]						> 30	> 30		> 30	> 30		> 30
C[C@H](CS)C(=O)N1CCC[C@H]1C(=O)O [CAPTOPRIL]						> 10	> 10		> 30	> 10	> 30	
CCN(CC)CCn1c(=O)c(Cc2ccc(OC)cc2)nc2ccccc21 [CAROVERINE]						> 30	> 30	> 30	> 30	5.34		> 30
NC(=O)C1(N2CCCCC2)CCN(CCCN2c3ccccc3CCc3ccccc32)CC1 [CARPIPRAMINE]	0.0207	> 30	> 30	2.94	2.73							
CN1CCN(C(c2ccccc2)c2ccc(Cl)cc2)CC1 (stereo not given) [CHLORCYCLIZINE]	0.449	> 30	> 30	0.225	15.4							

SMILES	AC50 (D(3) dopamine receptor) [µM]	AC50 [1] [µM]	AC50 [2] [µM]	AC50 [3] [µM]	AC50 [4] [µM]	AC50 [5] [µM]	AC50 [6] [µM]	AC50 (Cannabinoid receptor 1) [µM]	AC50 [7] [µM]	AC50 [8] [µM]	AC50 (Mu-type opioid receptor) [µM]	AC50 [9] [µM]
CN(C)CCCC1(c2ccc(F)cc2)OCc2cc(C#N)ccc21 (stereo not given) [CITALOPRAM]		> 30	> 30			> 10		> 30	> 30	> 10		
O=P1(N(CCCl)CCCl)NCCCO1 (stereo not given) [CYCLOPHOSPHAMIDE ANHYDROUS]	> 30	> 30	> 30	> 30								
COC(=O)CCc1ccc(OCC(O)CNC(C)C)cc1 (stereo not given) [ESMOLOL]						27	> 30		> 30	> 30		
C[C@]12CCC(=O)C=C1CC[C@H]1[C@@H]3CC[C@](O)(C(=O)CO)[C@@]3(C)C[C@H](O)[C@@]12F [FLUDROCORTISONE]						> 10	> 30	> 30	> 30	> 10	> 30	> 10
O=c1[nH]cc(F)c(=O)[nH]1 [FLUOROURACIL]	> 30	> 30	> 30	> 30					> 30			
CCOC(=O)Nc1ccc(NCc2ccc(F)cc2)nc1N [FLUPIRTINE]						> 30	> 30	> 30	> 30	18		> 30
CCN(CCO)CCCC(C)Nc1ccnc2cc(Cl)ccc12 (stereo not given) [HYDROXYCHLOROQUINE]						> 10	> 10		> 10	> 10	> 30	
OCCOCCN1CCN(C(c2ccccc2)c2ccc(Cl)cc2)CC1 (stereo not given) [HYDROXYZINE]						> 10	> 10	> 30	> 30	8.65	> 30	> 10
CNC1(c2ccccc2Cl)CCCCC1=O (stereo not given) [KETAMINE]	> 30	> 30	> 30	> 30								
O=C(c1ccccc1)c1ccc2n1CCC2C(=O)O (stereo not given) [KETOROLAC]						> 10	> 30		> 10	> 30	> 30	
Nc1nnc(-c2cccc(Cl)c2Cl)c(N)n1 [LAMOTRIGINE]						> 10	> 10		> 30	> 10	> 30	
CC(=O)NC[C@H]1CN(c2ccc(N3CCOCC3)c(F)c2)C(=O)O1 [LINEZOLID]								> 30	> 30	> 30		> 30
O=NN(CCCl)C(=O)NC1CCCCC1 [LOMUSTINE]	> 30	> 30	> 30	> 30								
CNC1(C)C2CCC(C2)C1(C)C (stereo not given) [MECAMYLAMINE]						> 10	> 10		> 10	> 10	> 30	> 10
CCC1(c2ccccc2)C(=O)NCNC1=O [PRIMIDONE]						> 10	> 10		> 10	> 10	> 30	
CCOc1ccccc1OCCN[C@H](C)Cc1ccc(OC)c(S(N)(=O)=O)c1 [TAMSULOSIN]						2.2	> 10		> 30	> 30	5.3	> 10
C[C@H](Cn1cnc2c(N)ncnc21)OCP(=O)(O)O [TENOFOVIR ANHYDROUS]						> 30	> 30		> 30	> 30		> 30
